Data: patent US20070128217A1 (priority 2003, published 2007)

Legend:
[1] = system: antibodies in sera from SARS patients (sera 1a, 1b, 2, 6, 37, 62, London, SARS-yellow, SARS-green); assay type: binding, human; design: Binding of serum 6 to linear peptides of protein X1 of SARS-CoV Urbani / Binding of serum 37 to linear peptides of protein X1 of SARS-CoV Urbani / Binding of serum 6 to looped/cyclic peptide (PEPSCAN-ELISA) / Binding of serum 37 to looped/cyclic peptide (PEPSCAN-ELISA) / Binding of serum 37 to looped/cyclic peptides of protein X1 of SARS-CoV Urbani / Binding of serum 6 to linear peptides of protein X2 / Binding of serum 37 to linear peptides of protein X2 / Binding of serum 37 to looped/cyclic peptides of protein X2 of SARS-CoV Urbani / Binding of serum 6 to linear peptides of protein M of SARS-CoV Urbani / Binding of serum 37 to linear peptides of protein M of SARS-CoV Urbani / Binding of serum 6 to looped/cyclic peptides of protein M of SARS-CoV Urbani / Binding of serum 37 to looped/cyclic peptides of protein M of SARS-CoV Urbani / Binding of serum 6 to linear peptides of protein X3 of SARS-CoV Urbani / Binding of serum 37 to linear peptides of protein X3 of SARS-CoV Urbani / Binding of serum 37 to looped/cyclic peptides of protein X3 of SARS-CoV Urbani / Binding of serum 6 to linear peptides of protein X4 of SARS-CoV Urbani / Binding of serum 37 to linear peptides of protein X4 of SARS-CoV Urbani / Binding of serum 37 to looped/cyclic peptides of protein X4 of SARS-CoV Urbani / Binding of serum 6 to linear peptides of protein X5 of SARS-CoV Urbani / Binding of serum 37 to linear peptides of protein X5 of SARS-CoV Urbani / Binding of serum 37 to looped/cyclic peptides of protein X5 of SARS-CoV Urbani / Binding of serum 6 to linear peptides of protein N of SARS-CoV Urbani / Binding of serum 37 to linear peptides of protein N of SARS-CoV Urbani / Binding of serum 6 to linear peptide (PEPSCAN-ELISA) / Binding of serum 1a to looped/cyclic peptides of protein N of SARS-CoV Urbani / Binding of serum 1b to looped/cyclic peptides of protein N of SARS-CoV Urbani / Binding of serum 2 to looped/cyclic peptides of protein N of SARS-CoV Urbani / Binding of serum 6 to looped/cyclic peptides of protein N of SARS-CoV Urbani / Binding of serum 37 to looped/cyclic peptides of protein N of SARS-CoV Urbani / Binding of serum 62 to looped/cyclic peptides of protein N of SARS-CoV Urbani / Binding of serum London to looped/cyclic peptides of protein N of SARS-CoV Urbani / Binding of serum SARS-green to looped/cyclic peptides of protein N of SARS-CoV Urbani: unit not given here
[2] = system: control sera (pooled serum of ten healthy LUMC hospital workers; commercial negative donor pooled serum from the Dutch bloodbank); assay type: binding, human; design: Binding of Control serum LUMC to linear peptides / Binding of Control serum Blood-bank to linear peptides / Binding of Control serum LUMC to looped peptides / Binding of Control Serum Blood-Bank to Looped peptides / Binding of Control serum LUMC to linear peptides of the protein M of SARS-CoV Urbani / Binding of Control serum Blood-bank to linear peptides of the protein M of SARS-CoV Urbani / Binding of Control serum LUMC to looped peptides of the protein M of SARS-CoV Urbani / Binding of Control Serum Blood-Bank to Looped peptides of the protein M of SARS-CoV Urbani: unit not given here
[3] = system: rabbit serum obtained by immunizing a rabbit with the SARS-CoV strain Frankfurt 1; assay type: binding; design: Binding of a rabbit serum to linear peptides / Binding of a rabbit serum to looped peptides / Rabbit serum linear peptides / Rabbit serum looped peptides / Binding of a rabbit serum to linear peptides of protein N of SARS-CoV Urbani (Rabbit serum linear peptides) / Binding of a rabbit serum to looped/cyclic peptides of protein N of SARS-CoV Urbani (Rabbit serum looped peptides): unit not given here
[4] = system: recombinant human anti-SARS-CoV antibody 03-018; assay type: binding; design: Binding of antibody 03-018 to linear peptides of the N protein of SARS-CoV Urbani / Binding of antibody 03-018 to looped/cyclic peptides of the N protein of SARS-CoV Urbani: unit not given here

Sequence | Binding of serum 1a to linear peptides of protein N of SARS-CoV Urbani [1] | Binding of serum 1a to looped/cyclic peptides of protein N of SARS-CoV Urbani [1] | Binding of serum 1b to linear peptides of protein N of SARS-CoV Urbani [1] | Binding of serum 1b to looped/cyclic peptides of protein N of SARS-CoV Urbani [1] | Binding of serum 2 to linear peptides of protein N of SARS-CoV Urbani [1] | Binding of serum 2 to looped/cyclic peptides of protein N of SARS-CoV Urbani [1] | Binding of serum 6 to linear peptides of protein N of SARS-CoV Urbani [1] | Binding of serum 6 to looped/cyclic peptides of protein N of SARS-CoV Urbani [1] | Binding of serum 37 to linear peptides of protein N of SARS-CoV Urbani [1] | Binding of serum 37 to looped/cyclic peptides of protein N of SARS-CoV Urbani [1] | Binding of serum 62 to linear peptides of protein N of SARS-CoV Urbani [1] | Binding of serum 62 to looped/cyclic peptides of protein N of SARS-CoV Urbani [1] | Binding of serum London to linear peptides of protein N of SARS-CoV Urbani [1] | Binding of serum London to looped/cyclic peptides of protein N of SARS-CoV Urbani [1] | Binding of serum SARS-green to linear peptides of protein N of SARS-CoV Urbani [1] | Binding of serum SARS-green to looped/cyclic peptides of protein N of SARS-CoV Urbani [1] | Binding of serum SARS-yellow to linear peptides of protein N of SARS-CoV Urbani [1] | Binding of serum SARS-yellow to looped/cyclic peptides of protein N of SARS-CoV Urbani [1] | Binding of a rabbit serum to linear peptides of protein N of SARS-CoV Urbani (Rabbit serum linear peptides) [3] | Binding of a rabbit serum to looped/cyclic peptides of protein N of SARS-CoV Urbani (Rabbit serum looped peptides) [3] | other results
EAQPLPQRQKKQPTV | 0.2 | 0.2 | 0.2 | 0.1 | 0.3 | 0.2 | 0.3 | 0.2 | 0.7 | 0.3 | 0.7 | 0.2 | 1.2 | 0.3 | 0.4 | 0.2 | 1.3 | 0.5 | 0.1 | 0.0 | Control Serum Blood-Bank Looped peptides [2]: 0.4; Control serum Blood-bank linear peptides [2]: 0.6; Control serum LUMC linear peptides [2]: 0.7; Control serum LUMC looped peptides [2]: 0.4; Binding of antibody 03-018 to linear peptides of the N protein of SARS-CoV Urbani [4]: 0.1; Binding of antibody 03-018 to looped/cyclic peptides of the N protein of SARS-CoV Urbani [4]: 0.2
EGALNTPKDHIGTRN | 0.2 | 0.3 | 0.1 | 0.2 | 0.2 | 0.5 | 0.2 | 0.3 | 0.6 | 0.6 | 0.6 | 0.3 | 0.6 | 0.5 | 0.1 | 0.4 | 0.5 | 0.2 | 0.1 | 0.0 | Binding of Control Serum Blood-Bank to Looped peptides [2]: 0.7; Binding of Control serum Blood-bank to linear peptides [2]: 0.7; Binding of Control serum LUMC to linear peptides [2]: 0.6; Binding of Control serum LUMC to looped peptides [2]: 0.5; Binding of antibody 03-018 to linear peptides of the N protein of SARS-CoV Urbani [4]: 0.1; Binding of antibody 03-018 to looped/cyclic peptides of the N protein of SARS-CoV Urbani [4]: 0.3
EGIVWVATEGALNTP | 0.3 | 0.3 | 0.2 | 0.2 | 0.3 | 0.4 | 0.2 | 0.2 | 0.8 | 0.7 | 0.7 | 0.6 | 0.5 | 0.3 | 0.4 | 0.4 | 0.6 | 0.6 | 0.1 | 0.4 | Binding of Control Serum Blood-Bank to Looped peptides [2]: 0.6; Binding of Control serum Blood-bank to linear peptides [2]: 0.8; Binding of Control serum LUMC to linear peptides [2]: 0.8; Binding of Control serum LUMC to looped peptides [2]: 0.6; Binding of antibody 03-018 to linear peptides of the N protein of SARS-CoV Urbani [4]: 0.1; Binding of antibody 03-018 to looped/cyclic peptides of the N protein of SARS-CoV Urbani [4]: 0.2
